Holding throughout (test): biochemical
Common to all, as to conditions: read-out: % enzyme activity, 1 μM; Run 1, Run 2

The target in one assay is T1, DCAMKL1 (Homo sapiens, UniProt O15075).
T1 sequence (O15075 1-740): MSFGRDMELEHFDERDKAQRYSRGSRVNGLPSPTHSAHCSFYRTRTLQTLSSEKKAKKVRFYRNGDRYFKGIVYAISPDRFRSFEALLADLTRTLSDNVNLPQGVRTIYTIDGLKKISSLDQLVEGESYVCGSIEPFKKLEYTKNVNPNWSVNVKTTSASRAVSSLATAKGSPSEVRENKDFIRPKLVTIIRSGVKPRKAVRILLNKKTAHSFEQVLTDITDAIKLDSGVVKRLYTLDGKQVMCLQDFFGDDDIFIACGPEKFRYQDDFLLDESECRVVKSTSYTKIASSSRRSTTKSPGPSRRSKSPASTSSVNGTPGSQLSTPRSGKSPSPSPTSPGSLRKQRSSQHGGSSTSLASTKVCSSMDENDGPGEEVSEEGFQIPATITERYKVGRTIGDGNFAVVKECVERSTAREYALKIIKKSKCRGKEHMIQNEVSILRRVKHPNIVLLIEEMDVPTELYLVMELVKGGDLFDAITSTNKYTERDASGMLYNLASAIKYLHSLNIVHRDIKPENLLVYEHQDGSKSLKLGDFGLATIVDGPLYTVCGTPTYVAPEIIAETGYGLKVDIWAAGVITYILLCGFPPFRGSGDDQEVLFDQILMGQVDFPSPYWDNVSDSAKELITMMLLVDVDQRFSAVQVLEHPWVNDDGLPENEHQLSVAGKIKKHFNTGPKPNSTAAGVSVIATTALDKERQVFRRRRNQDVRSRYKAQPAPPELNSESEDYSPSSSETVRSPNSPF

Another assay has as its target PAK5 (Homo sapiens, UniProt Q9P286).
Another assay has as its target T2, DCAMKL2 (Homo sapiens, UniProt Q8N568).
T2 sequence (Q8N568 1-766): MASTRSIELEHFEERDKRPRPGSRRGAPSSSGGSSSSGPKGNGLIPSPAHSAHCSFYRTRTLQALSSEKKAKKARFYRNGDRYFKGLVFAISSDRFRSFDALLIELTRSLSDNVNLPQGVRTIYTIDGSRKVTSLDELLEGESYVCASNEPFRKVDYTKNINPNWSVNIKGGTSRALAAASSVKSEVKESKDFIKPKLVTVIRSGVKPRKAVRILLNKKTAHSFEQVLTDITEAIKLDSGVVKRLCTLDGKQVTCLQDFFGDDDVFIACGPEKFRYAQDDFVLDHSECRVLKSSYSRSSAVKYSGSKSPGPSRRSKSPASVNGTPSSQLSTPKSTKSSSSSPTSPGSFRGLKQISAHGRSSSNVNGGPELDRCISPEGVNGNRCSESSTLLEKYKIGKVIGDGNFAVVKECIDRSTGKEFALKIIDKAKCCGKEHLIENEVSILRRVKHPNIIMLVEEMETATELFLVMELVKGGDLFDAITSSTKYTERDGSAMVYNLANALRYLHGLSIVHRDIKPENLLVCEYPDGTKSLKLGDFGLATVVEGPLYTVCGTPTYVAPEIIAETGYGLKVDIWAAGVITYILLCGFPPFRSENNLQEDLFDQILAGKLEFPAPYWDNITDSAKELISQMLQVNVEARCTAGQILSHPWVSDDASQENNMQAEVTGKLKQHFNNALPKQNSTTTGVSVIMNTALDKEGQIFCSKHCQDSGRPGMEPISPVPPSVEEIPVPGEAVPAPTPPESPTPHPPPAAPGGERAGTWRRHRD

Another assay addresses T3, ARK5/NUAK1 (Homo sapiens, UniProt O60285).
T3 sequence (O60285 1-661): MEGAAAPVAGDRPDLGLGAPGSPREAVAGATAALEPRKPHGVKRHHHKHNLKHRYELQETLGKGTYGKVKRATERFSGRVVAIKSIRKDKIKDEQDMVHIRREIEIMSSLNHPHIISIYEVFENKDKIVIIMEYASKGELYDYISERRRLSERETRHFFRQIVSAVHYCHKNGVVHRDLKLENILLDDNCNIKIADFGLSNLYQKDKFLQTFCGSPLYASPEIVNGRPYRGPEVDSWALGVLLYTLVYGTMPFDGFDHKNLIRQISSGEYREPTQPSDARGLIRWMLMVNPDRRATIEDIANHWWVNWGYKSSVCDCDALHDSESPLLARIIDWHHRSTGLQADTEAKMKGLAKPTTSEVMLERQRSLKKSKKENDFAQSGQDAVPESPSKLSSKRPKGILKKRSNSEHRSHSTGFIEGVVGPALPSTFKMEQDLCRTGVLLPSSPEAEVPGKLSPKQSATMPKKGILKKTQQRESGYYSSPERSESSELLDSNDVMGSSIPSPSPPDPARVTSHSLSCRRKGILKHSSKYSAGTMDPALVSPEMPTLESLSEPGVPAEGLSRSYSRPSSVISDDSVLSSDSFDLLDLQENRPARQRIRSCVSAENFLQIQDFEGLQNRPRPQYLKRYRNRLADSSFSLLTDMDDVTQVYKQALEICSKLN

For 2 compounds, remaining activity results are on record in paper PMC8213057, “Targeting ALK2: An Open Science Approach to Developing Therapeutics for the Treatment of Diffuse Intrinsic Pontine Glioma” (Journal of Medicinal Chemistry, 2020).

Each structure is given as a SMILES string.

Chain of PAK5 (Q9P286 whole entry): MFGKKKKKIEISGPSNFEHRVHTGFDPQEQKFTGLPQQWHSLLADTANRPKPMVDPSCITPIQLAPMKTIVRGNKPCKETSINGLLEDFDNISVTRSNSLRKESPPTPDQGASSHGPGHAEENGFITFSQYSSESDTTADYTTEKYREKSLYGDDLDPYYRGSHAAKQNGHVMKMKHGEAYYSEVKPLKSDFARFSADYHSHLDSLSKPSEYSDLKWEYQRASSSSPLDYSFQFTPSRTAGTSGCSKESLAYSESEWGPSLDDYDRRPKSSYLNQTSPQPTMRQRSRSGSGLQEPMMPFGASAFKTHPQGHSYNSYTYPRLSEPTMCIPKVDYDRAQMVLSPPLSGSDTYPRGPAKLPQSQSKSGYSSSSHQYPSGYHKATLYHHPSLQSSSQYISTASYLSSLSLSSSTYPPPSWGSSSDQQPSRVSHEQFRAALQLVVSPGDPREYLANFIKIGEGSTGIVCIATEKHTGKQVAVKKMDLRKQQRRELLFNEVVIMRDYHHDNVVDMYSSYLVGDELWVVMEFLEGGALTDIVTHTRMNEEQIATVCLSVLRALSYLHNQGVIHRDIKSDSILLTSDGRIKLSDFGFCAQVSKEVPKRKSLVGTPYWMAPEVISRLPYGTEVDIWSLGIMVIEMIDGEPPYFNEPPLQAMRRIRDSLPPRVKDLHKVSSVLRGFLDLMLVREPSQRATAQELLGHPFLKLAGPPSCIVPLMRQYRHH

On to `COc1cc(-c2cncc(-c3ccc(N4C[C@@H](C)N(C)[C@@H](C)C4)cc3)c2C)cc(F)c1C(N)=O` [Compound 26c, 2-Fluoro-6-methoxy-4-(4-methyl-5-(4-((3R,5S)-3,4,5-trimethylpiperazin-1-yl)phenyl)pyridin-3-yl)benzamide], for which the remaining activity at 1 µM came to 89.1% on DCAMKL1, 97.3% at PAK5, 84.5% at DCAMKL2 and 96% at ARK5/NUAK1.
For `COc1cc(-c2cncc(-c3ccc(N4CCN(C)CC4)cc3)c2C)cc(F)c1C(N)=O` [Compound 26a, 2-Fluoro-6-methoxy-4-(4-methyl-5-(4-(4-methylpiperazin-1-yl)phenyl)pyridin-3-yl)benzamide], the remaining activity at 1 µM on DCAMKL1 came out at 81.8%; at PAK5 it was 94.6%; on DCAMKL2 it was 64.4%; at ARK5/NUAK1, 97.6%.
